Measured values from US4325974A, “β, γ-Dihydropolyprenyl alcohol and hypotensive pharmaceutical composition containing same” (Eisai Co., Ltd., priority 1978, dated 1982).

How the values were obtained:
[1] = system: spontaneously hypertensive rats (SHR) of Okamoto and Aoki; test: Hypotensive effect on spontaneously hypertensive rats (blood pressure, tail-cuff method; heart rate, tachometer); format: in vivo, rat (SHR of Okamoto and Aoki); details: 10 mg/kg oral
Procedure: I. The hypotensive effect of the formula (I) compound, according to the invention, on spontaneously hypertensive rats (hereinafter referred to as SHR) of Okamoto and Aoki:
The hypotensive effects of the test compounds on SHR of Okamoto and Aoki of about 35 weeks age were determined. The systolic blood pressure of the SHR was around 230 mmHg.
The test compounds were given to the SHR orally in the form of a suspension in aqueous acacia solution. The SHR were divided into a test compound group to which a test compound was administered and a control group to which only an aqueous acacia solution (free of test compound) was administered. Each group comprised three SHR.
The blood pressure of the SHR was measured with a Shimazu continuous tonometer SCS-301 (a product of Shimazu Seisakusho Co., Ltd.). Tail artery pressure was indirectly measured by a tail-cuff method.
The blood pressure was measured immediately before the administration and at 2, 4, 6 and 24 hours after the administration to determine the change in blood pressure with the passing of time.
The heart rate was determined by recording the pulse rate at the tail of the SHR with a tachometer of said tonometer […]. Test Compound and Dose
10 mg/kg (body weight of SHR)

[2] = system: hepatic disease (hepatitis), induced by intraabdominal administration of D-galactosamine; test: Effect on hepatic disease (hepatitis) induced by intraabdominal administration of D-galactosamine; format: in vivo; details: SD rats
Procedure: II. The effects of the formula (I) compound, according to the invention, on hepatic disease (hepatitis), induced by intraabdominal administration of D-galactosamine.
SD rats weighing about 250 g were used as test animals. D-Galactosamine hydrochloride (250 mg/kg each administration) and the test compound (50 mg/kg each administration) were administered intraabdominally to the rats on the schedule of experiments set forth below. After completion of the administration, blood was drawn from the test animals. The GPT value and alkali phosphatase value of the blood, which are indexes of the hepatic disease, were determined.
The test compound was used in the form of a suspension in 5% aqueous acacia solution. D-Galactosamine hydrochloride was used in the form of an aqueous solution thereof in distilled water, which solution was adjusted to pH 7 with potassium hydroxide. The rats were divided into three groups, i.e., a test compound group (comprising 9 rats) to which the test compound was administered, a control group (comprising 14 rats) to which 5% aqueous acacia solution free of the test compound was administered and a normal group (comprising 9 rats) to which neither the test compound nor D-galactosamine hydrochloride was administered. [drawing 9]

With CC(C)=CCCC(C)=CCCC(C)=CCCC(C)=CCCC(C)=CCCC(C)=CCCC(C)=CCCC(C)=CCCC(C)=CCCC(C)CCO (centres unmarked) [test compound, 3,7, 11, 15, 19, 23, 27, 31, 35, 39-Decamethyl-6, 10, 14, 18, 22, 26, 30, 34, 38-tetracontanonaene-1-ol] the “blood pressure two hours after the administration” value ([1]; 2 h, before administration 227±7 mmHg) was 207±9 mmHg, the “blood pressure six hours after the administration” value ([1]; 6 h, before administration 227±7 mmHg, control 232±7 mmHg at 6 h) was 202±12 mmHg and the “blood pressure 24 hours after the administration” value ([1]; 24 h, before administration 227±7 mmHg) was 212±9 mmHg. The “effect on the heart rate” value ([1]; result in words) was “No effect on the heart rate was observed”, the hypotensive effect ([1]; result in words) was “clear, long-lasting hypotensive effect” and the “effect on hepatic disease induced by D-galactosamine hydrochloride” value ([2]; 50 mg/kg each intraabdominal, result in words) was “ameliorated or prevented”. For the same compound, the Alkali phosphatase value ([2]; test compound 50 mg/kg each and D-galactosamine hydrochloride 250 mg/kg each, intraabdominal, control 70.9 ± 3.9, normal 32.3 ± 2.5) was 63.7 ± 4.3 KA-U and the “GPT Value” ([2]; test compound 50 mg/kg each and D-galactosamine hydrochloride 250 mg/kg each, intraabdominal, control 1041.4 ± 200.8, normal 46.5 ± 4.9) was 523.3 ± 111.7 Carmen unit.
